Laboratory results as given in patent publication US4920215A, “Antibiotic produced by fermentation” (Pfizer Inc., priority 1987, dated 1990).

Test system: rumen fluid
Assay: In vitro rumen technique, propionic acid production
Conditions: 16 h, pH 6.8, read-out: increase of propionic acid over the control

CC[C@@H](C(=O)[C@@H](C)[C@@H](O)[C@H](C)[C@@H]1O[C@@H]([C@@H](CC)C(=O)O)CC[C@@H]1C)[C@H]1O[C@]2(C=C[C@@H](O)[C@]3(CC[C@@](C)([C@H]4CC[C@](O)(CC)[C@H](C)O4)O3)O2)[C@H](C)C[C@@H]1C [salinomycin]
activation at 10 µg/mL: ~61%
